Measurements as given in article PMC4736448, “Optical Control of Insulin Secretion Using an Incretin Switch” (Angewandte Chemie (International Ed. in English), 2015).
Starred links: 1 amine or outer side, 2 acyl side, 3 side chain; linkers in the order of their positions; H or OH if unused. Non-standard residues stand in square brackets, D forms with d. Residues, ends and D or L forms follow the SMILES beside them. X1 = O=C(Cc1cccc(/N=N/c2cccc(CN[*:1])c2)c1)[*:2]; X2 = O=C(Cc1cccc(/N=N\c2cccc(CN[*:1])c2)c1)[*:2]

Legend:
mouse islets = experiment: Glucose-stimulated insulin secretion from isolated islets; type: cell-based; conditions: 150 nM, 8 mM glucose, n=12 animals; for augmentation of glucose-stimulated insulin secretion: mouse islets, 30 min, dark (trans) or 350 nm light (cis)
Protocol: (§1) All procedures involving primary tissue were regulated by the Home Office […]
(§2) Isolation of rodent islets
(§3) Islets were isolated from 8-12 week old female C57BL6 mice, as previously detailed,[2] and maintained in Roswell Park Memorial Institute (RPMI) medium supplemented with 10% foetal calf serum, 100 U/mL penicillin and 100 µg/mL […]
transilluminator to induce cis-isomerization, or kept in the dark to maintain the trans-isomer. In addition, for HTS Ca2+ assays, λ = 340 ± 10 nm or λ = […] was delivered between acquisitions using the platereader’s inbuilt […]
Batches of six to eight islets were incubated for 30 min in Krebs-HEPES-bicarbonate solution containing in mM: 130 NaCl, 3.6 KCl, 1.5 CaCl2, 0.5 MgSO4, 0.5 NaH2PO4, 2 NaHCO3, 10 HEPES and 0.1% (wt/vol) bovine serum albumin, pH 7.4.[2] Treatments were applied as indicated and photoswitching performed at λ = 340 ± 10 nm using a BMG Fluostar Optima platereader, as above. Insulin concentrations in the supernatant were measured using a Cisbio HTRF assay according to the low-range (sensitive) protocol.
(§4) Non-multifactorial comparisons were made using Student’s t-test. Multifactorial comparisons were made using either one- or two-way ANOVA, or the Kruskal-Wallis test, followed by pairwise comparisons using Bonferonni’s or Dunn’s tests.
(§5) Log-transformed concentration-response curves were fitted using non-linear regression and the Hill equation. All analyses were conducted using Graphpad Prism (Graphpad Software) and IgorPro, and results deemed significant at […]

MIN6 beta cells [1] = experiment: Apoptosis induced by glucolipotoxicity in MIN6 beta cells (cleaved caspase 3); type: cell-based; conditions: 500 nM, 24 h, 33 mM glucose + 0.5 mM palmitate, n=8 repeats
Protocol: MIN6 cells (a kind gift from Dr Jun-ichi Miyazaki, Osaka University) were cultured in DMEM supplemented with 15% FBS, 10 mM glutamine, 20 mM HEPES, 0.0005% β-mercaptoethanol 100 U/mL penicillin and 100 µg/mL […]
Apoptosis was assessed using a DeadEnd Fluorimetric
TUNEL System staining kit (Promega).[3] The apoptotic cell mass was calculated as a fraction area versus the total cell mass. To investigate the pro-survival […]
(§6) mixture (33 mM glucose + 0.5 mM palmitate) in the presence or absence of compound. Apoptosis was subsequently determined using specific fluorescent immunostaining and a rabbit polyclonal antibody against cleaved caspase 3 (Cell Signaling Technology # 9661; 1:400), before analysis as above. […]

[2] = system: pancreatic beta cells within intact islets; experiment: Multicellular Ca2+ imaging in intact islets of Langerhans; type: cell-based, mouse; conditions: for effect on cytosolic Ca2+ levels / multicellular Ca2+ spiking in islets / Ca2+ rises / beta-cell activity at non-permissive (low) glucose: 150 nM; for effect on cytosolic Ca2+ levels / multicellular Ca2+ spiking in islets: permissive (>8 mM) glucose, blue 440 nm (trans), UV 350 nm (cis); for Ca2+ rises / beta-cell activity at non-permissive (low) glucose: G3, 3 mM glucose, n=5 recordings; for effect of GLP-1R blockade on trans-LirAzo-stimulated Ca2+ oscillations: Exendin 9-39 150 nM, n=9 recordings
Protocol: (§7) All procedures involving primary tissue were regulated by the Home Office according to the Animals (Scientific Procedures) Act 1986 of the United Kingdom […]
as §2, §3
Multicellular Ca2+ imaging was performed using fluo2 and a Nipkow spinning disk confocal microscope, as detailed.[3] Briefly, pulsed λ = 491 nm light was delivered through a 10/0.3 NA objective (EC Plan-Neofluar, Zeiss) using a solid-state laser (Cobalt), and emitted signals captured from λ = 500-550 nm using a Hammamatsu ImageEM EM-CCD camera. Photoswitching was performed using either a λ = 440 nm laser or the epifluorescent port of the microscope configured with a λ = 350 ± 20 nm band-pass filter. Throughout, HEPES-bicarbonate buffer was used, containing in mM: 120 NaCl, 4.8 KCl, 24 NaHCO3, 0.5 Na2HPO4, 5 HEPES, 2.5 CaCl2 and 1.2 MgCl2. Compounds and D-glucose were added as […]

[3] = cis-trans photoisomerization by UV/Vis spectroscopy; type: physicochemical; conditions: UV 330 nm (trans→cis), blue 440 nm (cis→trans), listed as names the isomer
Source text: Switching kinetics in response to blue (λ=440 nm; cis→trans) and UV (λ=330 nm; trans→cis) light were robust and fast, with no evidence of degradation or bleaching (Figure 2 b; see Figure S2 and Table S2 in the Supporting Information).

MIN6 beta cells [4] = experiment: cAMP responses in MIN6 beta cells (Cisbio HTRF cAMP assay); type: cell-based; conditions: permissive (>8 mM) glucose, n=7 repeats
Protocol: as §7, §2, §3
Chinese Hamster Ovary (CHO) cells stably expressing the GLP-1R were cultured in Dulbecco's Modified Eagle's Medium (DMEM) supplemented with 10% FBS, 1 x non-essential amino acids, 25 mM HEPES, 100 U/mL penicillin and 100 µg/mL streptomycin. […]
(§8) (live) and 2.5 µM of propidium iodide (dead), and […]/emission detected at λ = 491/525 nm and λ = 561/620 nm, respectively. The area of dead:live cells was calculated as a ratio. Apoptosis was assessed using a DeadEnd Fluorimetric TUNEL System staining kit (Promega).[3] The apoptotic cell mass was calculated as a fraction area versus the total cell mass. […]
as §6
HitHunter No Wash PLUS assay. […] Absorbance/emission were detected at λ = 488/525 nm. […]

MIN6 beta cells [5] = type: cell-based; conditions: for signaling pathways engaged (Ca2+ rises with pathway antagonists): MIN6 beta cells, 150 nM, >8 mM glucose, antagonists of Epac2, L-type Ca2+ channels, KATP, IP3R, PKA, n=8 repeats
Protocol: as §1
MIN6 cells (a kind gift from Dr Jun-ichi Miyazaki, Osaka University) […]
HEPES, 0.0005% β-mercaptoethanol 100 U/mL penicillin and 100 µg/mL […]
Multicellular Ca2+ imaging was performed using fluo2 and a Nipkow spinning disk confocal microscope, as detailed.[3] […]
through a 10/0.3 NA objective (EC Plan-Neofluar, Zeiss) using a solid-state laser (Cobalt), and emitted signals captured from λ = 500-550 nm using a Hammamatsu ImageEM EM-CCD camera. Photoswitching was performed using either a λ = 440 nm laser or the epifluorescent port of the microscope configured with a λ = 350 ± 20 nm band-pass filter. Throughout, HEPES-bicarbonate buffer was used, containing in mM: 120 NaCl, 4.8 KCl, 24 NaHCO3, 0.5 Na2HPO4, 5 […]
HEPES, 2.5 CaCl2 and 1.2 MgCl2. […]
High-throughput (HTS) Ca2+ assays were performed using the DiscoverX
HitHunter No Wash PLUS assay. Treatments were automatically delivered at 37 °C using a BMG Labtech NOVOstar platereader and fluorescence intensity read […]
over 30-45 s. […] For all […]
transilluminator to induce cis-isomerization, or kept in the dark to maintain the […]
trans-isomer. […]
as §4, §5

islets = experiment: Cytotoxicity (dead:live and TUNEL) in islets; type: cell-based, mouse; conditions: 11 mM glucose-only; n=8-9 islets
Protocol: as §7, §2, §3
Cytotoxicity and apoptosis assays
as §8

Molecule	potentiation of glucose-stimulated insulin secretion (versus G8) (mouse islets)	augmentation of glucose-stimulated insulin secretion (mouse islets)	protection from apoptosis induced by glucolipotoxic insult (MIN6 beta cells [1])	effect on cytosolic Ca2+ levels / multicellular Ca2+ spiking in islets [2]	photoswitching kinetics τ1 [3]	photoswitching kinetics τ2 [3]	cAMP concentration response in MIN6 beta cells, cis versus trans (MIN6 beta cells [4])	Ca2+ fluxes versus control injection (high glucose alone) (MIN6 beta cells [5]; Figure S6)	signaling pathways engaged (Ca2+ rises with pathway antagonists) (MIN6 beta cells [5])	protection from apoptosis induced by glucolipotoxic insult (MIN6 beta cells [1]; listed as trans isomer of LirAzo)	Ca2+ rises / beta-cell activity at non-permissive (low) glucose [2]	Ca2+ rises / beta-cell activity at non-permissive (low) glucose ([2]; listed as trans-LirAzo)	islet cell apoptosis under normal conditions (TUNEL) (islets)	effect of GLP-1R blockade on trans-LirAzo-stimulated Ca2+ oscillations [2]	effect of GLP-1R blockade on trans-LirAzo-stimulated Ca2+ oscillations ([2]; listed as Exendin 9-39)
CC[C@H](C)[C@H](NC(=O)[C@H](Cc1ccccc1)NC(=O)[C@H](CCC(=O)O)NC(=O)[C@H](CCCCN)NC(=O)[C@H](C)NC(=O)[C@H](C)NC(=O)Cc1cccc(/N=N\c2cccc(CNC(=O)[C@H](CCC(=O)O)NC(=O)[C@H](CC(C)C)NC(=O)[C@H](Cc3ccc(O)cc3)NC(=O)[C@H](CO)NC(=O)[C@H](CO)NC(=O)[C@@H](NC(=O)[C@H](CC(=O)O)NC(=O)[C@H](CO)NC(=O)[C@@H](NC(=O)[C@H](Cc3ccccc3)NC(=O)[C@@H](NC(=O)CNC(=O)[C@H](CCC(=O)O)NC(=O)[C@H](C)NC(=O)[C@@H](N)Cc3c[nH]cn3)[C@@H](C)O)[C@@H](C)O)C(C)C)c2)c1)C(=O)N[C@@H](C)C(=O)N[C@@H](Cc1c[nH]c2ccccc12)C(=O)N[C@@H](CC(C)C)C(=O)N[C@H](C(=O)N[C@@H](CCCNC(=N)N)C(=O)NCC(=O)N[C@@H](CCCNC(=N)N)C(=O)NCC(=O)O)C(C)C [cis‐LirAzo] (H-HAEGTFTSDVSSYLE[X2]AAKEFIAWLVRGRG-OH)	potentiate	ca. 2.5 fold	Lira and trans‐LirAzo are more protective than cis‐LirAzo	reduced	51.0 ± 2.4 s	11.1 ± 4.0 min	significantly left‐shifted, with a higher maximal response	only just above those observed following control injection	signaled via the cAMP binding partners Epac2 and PKA, as well as IP3						
CC[C@H](C)[C@H](NC(=O)[C@H](Cc1ccccc1)NC(=O)[C@H](CCC(=O)O)NC(=O)[C@H](CCCCN)NC(=O)[C@H](C)NC(=O)[C@H](C)NC(=O)Cc1cccc(/N=N/c2cccc(CNC(=O)[C@H](CCC(=O)O)NC(=O)[C@H](CC(C)C)NC(=O)[C@H](Cc3ccc(O)cc3)NC(=O)[C@H](CO)NC(=O)[C@H](CO)NC(=O)[C@@H](NC(=O)[C@H](CC(=O)O)NC(=O)[C@H](CO)NC(=O)[C@@H](NC(=O)[C@H](Cc3ccccc3)NC(=O)[C@@H](NC(=O)CNC(=O)[C@H](CCC(=O)O)NC(=O)[C@H](C)NC(=O)[C@@H](N)Cc3c[nH]cn3)[C@@H](C)O)[C@@H](C)O)C(C)C)c2)c1)C(=O)N[C@@H](C)C(=O)N[C@@H](Cc1c[nH]c2ccccc12)C(=O)N[C@@H](CC(C)C)C(=O)N[C@H](C(=O)N[C@@H](CCCNC(=N)N)C(=O)NCC(=O)N[C@@H](CCCNC(=N)N)C(=O)NCC(=O)O)C(C)C [trans‐LirAzo] (H-HAEGTFTSDVSSYLE[X1]AAKEFIAWLVRGRG-OH)		ca. 1.4 fold	more protective than cis‐LirAzo	induced increases in the baseline amplitude and frequency of multicellular Ca^2+ spiking	32.3 ± 1.6 s	7.5 ± 3.4 min			signaled via the cAMP binding partners Epac2 and PKA, as well as IP3	significant protection	unable to stimulate changes in beta‐cell activity	unable	do not induce		
exendin 9–39 [reference compound]														abolished	abolishes
